Measurements: patent US20250230149A1, “MGLUR5 MODULATING COMPOUNDS, COMPOSITIONS, AND METHODS OF USE” (Allyx Therapeutics, Inc., priority 2022, published 2025)
pKi: −log10 of the molar value. In brackets after ≈: the same amount, converted by molar mass.

Key:
CYP2C19 = CYP2C19 (Homo sapiens, UniProt P33261); assay: CYP450 reaction phenotyping in Supersomes, CYP2C19; assay type: in vitro ADME
Protocol: In Vitro CYP450 Reaction Phenotyping Study in Supersomes™ Over-Expressing Human CYP Enzymes
The CYPP450 enzymes involved in the Phase I metabolism of Compound 1 Form A were investigated in vitro. Compound 1 Form A was metabolized by CYP1A2, CYP2D6 and CYP3A4 and with T1/2 values of 64, 14, and 176 min, respectively, and CLint of 0.261, 0.984 and 0.0786 μL/min/pmol CYP, respectively. No evidence of Compound 1 metabolism by CYP2B6, CYP2C8, CYP2C9 and CYP2C19 was observed.

[1] = Solubility in EtOAc/heptane mixtures by HPLC; assay type: physicochemical; conditions: organic solvent or mixture, thermodynamic from solid
Protocol: Solubility data were generated applying the following protocol: slurries of Compound 1 were prepared and allowed to equilibrate at 20° C. under stirring for about 18 hours. To determine the concentration in supernatant, about 0.1 mL of slurry was sampled with syringe, filtered, weighed, diluted with MeCN, and injected into an HPLC. […] Samples were cooled to 20° C., and solid residues were isolated by filtration on 20-μm PTFE filter, dried under vacuum at 40° C., and submitted to XRPD analysis. Compound 1 peak area for each sample was recorded, and solubility data were calculated using previously determined response factor (245 nm, 1460 mAU*sec/mg/mL, Table 7). The data were combined and visualized on chart with the solubility as function of the percentage of heptane by volume. […] Solubility smoothly decreases with the increase in heptane amount.

C1q = C1q production, synaptic localization and synaptic engulfment; parameters: species or system mice; conditions: mouse, in vivo
Excerpt: Compound 1 (e.g., Form A) prevented Alzheimer's triggered aberrant synaptic signaling while preserving physiological Glu activation. Studies have been conducted to show oral Compound 1 effectively occupied brain mGluR5 sites visualized by [^18F]FPEB PET at doses 250-fold below adverse effect levels in rodent and non-human primate. […] Production of the microglial mediator, C1q, was not altered by Compound 1, but Alzheimer-gene-dependent C1q localization to synapses and synaptic engulfment were prevented. Thus, selective modulation of mGluR5 reversed neuronal gene expression changes to protect synapses from damage by microglial mediators.

in vivo = assay: in vivo
Protocol: (§1) Six cohorts of 6 participants each received a single oral dose of Compound 1 in the fasted state at the following dose levels: 10, 40, 70, 100, 150, and 200 mg and then were followed for 7 days; the starting dose of 10 mg was <10% of the 140 mg human equivalent dose (HED) of the rat NOAEL in the GLP 28-day rat study of 15 mg/kg.

C57/BI6J mice = conditions: single 7.5 mg/kg dose; cited from earlier work
[2] = target: aryl hydrocarbon receptor (AhR) (Homo sapiens, UniProt P35869); assay: AhR receptor activation, human; assay type: in vitro ADME; conditions: at 30 μM
aryl hydrocarbon receptor (AhR), sequence (P35869 11-848): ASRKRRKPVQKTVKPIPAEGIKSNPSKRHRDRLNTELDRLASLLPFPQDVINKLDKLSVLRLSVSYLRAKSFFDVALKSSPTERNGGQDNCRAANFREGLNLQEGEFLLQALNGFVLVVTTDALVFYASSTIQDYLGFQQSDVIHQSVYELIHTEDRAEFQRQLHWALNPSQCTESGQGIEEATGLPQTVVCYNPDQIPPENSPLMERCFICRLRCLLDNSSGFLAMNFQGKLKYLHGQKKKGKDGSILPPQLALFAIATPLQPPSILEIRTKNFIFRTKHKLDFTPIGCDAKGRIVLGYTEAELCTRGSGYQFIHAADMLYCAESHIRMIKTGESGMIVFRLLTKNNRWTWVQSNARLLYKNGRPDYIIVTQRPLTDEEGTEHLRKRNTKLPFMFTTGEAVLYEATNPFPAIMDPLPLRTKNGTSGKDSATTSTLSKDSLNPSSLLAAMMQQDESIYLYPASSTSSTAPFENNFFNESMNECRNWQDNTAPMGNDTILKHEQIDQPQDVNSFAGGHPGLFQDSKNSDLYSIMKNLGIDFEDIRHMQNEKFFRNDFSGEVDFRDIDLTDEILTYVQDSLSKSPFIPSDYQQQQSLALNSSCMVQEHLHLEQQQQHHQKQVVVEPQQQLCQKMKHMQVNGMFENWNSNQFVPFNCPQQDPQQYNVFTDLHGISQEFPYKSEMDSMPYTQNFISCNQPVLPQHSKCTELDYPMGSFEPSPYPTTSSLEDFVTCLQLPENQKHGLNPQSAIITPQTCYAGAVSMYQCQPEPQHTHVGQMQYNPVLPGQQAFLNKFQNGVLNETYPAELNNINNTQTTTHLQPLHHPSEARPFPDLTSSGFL
Excerpt: (§2) The objective of this study was to determine the human and rat pregnane X receptor (PXR) and human and rat aryl hydrocarbon receptor (AhR) receptor activation potential of Compound 1 Form A. The activation of PXR is a marker for induction of CYP3A4/5 and […] and the activation of AhR is a marker for induction of CYP1A.

[3] = target: pregnane X receptor (PXR) (Rattus norvegicus, UniProt Q9R1A7); assay: PXR receptor activation, rat; assay type: in vitro ADME; conditions: at 30 μM
pregnane X receptor (PXR), sequence (Q9R1A7 whole entry): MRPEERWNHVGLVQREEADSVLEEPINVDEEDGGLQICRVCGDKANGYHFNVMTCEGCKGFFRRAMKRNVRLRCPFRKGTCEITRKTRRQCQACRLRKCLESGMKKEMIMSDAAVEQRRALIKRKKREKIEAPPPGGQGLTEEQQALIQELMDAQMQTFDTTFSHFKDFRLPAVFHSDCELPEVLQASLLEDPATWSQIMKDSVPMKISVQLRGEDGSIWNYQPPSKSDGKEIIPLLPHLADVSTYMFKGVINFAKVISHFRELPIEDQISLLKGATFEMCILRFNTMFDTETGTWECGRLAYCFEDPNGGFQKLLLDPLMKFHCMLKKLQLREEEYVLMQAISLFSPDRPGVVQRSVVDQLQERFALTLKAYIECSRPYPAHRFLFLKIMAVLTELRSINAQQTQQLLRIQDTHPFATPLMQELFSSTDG
Excerpt: as §2

[4] = Phase I open-label single ascending dose study; assay type: in vivo, healthy male and female participants; conditions: single oral doses 10-200 mg
Protocol: This was an open-label, single ascending doses (SAD) study in healthy male and female participants 50 to 80 years of age (inclusive) with no history of cognitive impairment to evaluate the safety of single oral doses of Compound 1.
as §1
Doses were administered in an inpatient setting where all participants were closely monitored prior to discharge on Day 3, with follow-up in-person visits occurring on Days 4 and 7 and a phone call to inquire about general health occurring on Day 5.
Compound 1 administration was carefully monitored within and between cohorts to ensure patient safety and determination of whether to open the next dose cohort was made after all participants in a given cohort had completed the study and all available clinical and safety data were reviewed by the Investigator, Medical Monitor, DSMB, and IND Sponsor.
Following study drug administration, vital signs were monitored every 1 hour for the first 8 hours and then every 3 hours until discharge on Day 3 and an ECG was performed at approximately 6, 24, and 48 hours after drug administration. In order to monitor for changes in consciousness, the Glasgow Coma Scale (GCS) was administered pre-dose and then every 2 hours for the first 8 hours and then every 3 hours until discharge on Day 3. In order to monitor for cognitive or psychiatric side effects, the MOCA, GDS, and NPIQ were administered prior to oral dose administration, again at approximately 6 hours post-dose (approximate peak concentration), and approximately 24 hours post-dose. Adverse events were monitored continuously. Blood was collected for safety laboratory studies prior to drug dose administration and on Days 2 and 3.

mGluR5 = mGluR5 (Homo sapiens, UniProt P41594); assay: [3H]-MPEPy displacement from mGluR5; assay type: binding; conditions: read-out: inhibitor constant (Ki) for [3H]-MPEPy displacement from mGluR5
mGluR5, sequence (P41594 21-1212): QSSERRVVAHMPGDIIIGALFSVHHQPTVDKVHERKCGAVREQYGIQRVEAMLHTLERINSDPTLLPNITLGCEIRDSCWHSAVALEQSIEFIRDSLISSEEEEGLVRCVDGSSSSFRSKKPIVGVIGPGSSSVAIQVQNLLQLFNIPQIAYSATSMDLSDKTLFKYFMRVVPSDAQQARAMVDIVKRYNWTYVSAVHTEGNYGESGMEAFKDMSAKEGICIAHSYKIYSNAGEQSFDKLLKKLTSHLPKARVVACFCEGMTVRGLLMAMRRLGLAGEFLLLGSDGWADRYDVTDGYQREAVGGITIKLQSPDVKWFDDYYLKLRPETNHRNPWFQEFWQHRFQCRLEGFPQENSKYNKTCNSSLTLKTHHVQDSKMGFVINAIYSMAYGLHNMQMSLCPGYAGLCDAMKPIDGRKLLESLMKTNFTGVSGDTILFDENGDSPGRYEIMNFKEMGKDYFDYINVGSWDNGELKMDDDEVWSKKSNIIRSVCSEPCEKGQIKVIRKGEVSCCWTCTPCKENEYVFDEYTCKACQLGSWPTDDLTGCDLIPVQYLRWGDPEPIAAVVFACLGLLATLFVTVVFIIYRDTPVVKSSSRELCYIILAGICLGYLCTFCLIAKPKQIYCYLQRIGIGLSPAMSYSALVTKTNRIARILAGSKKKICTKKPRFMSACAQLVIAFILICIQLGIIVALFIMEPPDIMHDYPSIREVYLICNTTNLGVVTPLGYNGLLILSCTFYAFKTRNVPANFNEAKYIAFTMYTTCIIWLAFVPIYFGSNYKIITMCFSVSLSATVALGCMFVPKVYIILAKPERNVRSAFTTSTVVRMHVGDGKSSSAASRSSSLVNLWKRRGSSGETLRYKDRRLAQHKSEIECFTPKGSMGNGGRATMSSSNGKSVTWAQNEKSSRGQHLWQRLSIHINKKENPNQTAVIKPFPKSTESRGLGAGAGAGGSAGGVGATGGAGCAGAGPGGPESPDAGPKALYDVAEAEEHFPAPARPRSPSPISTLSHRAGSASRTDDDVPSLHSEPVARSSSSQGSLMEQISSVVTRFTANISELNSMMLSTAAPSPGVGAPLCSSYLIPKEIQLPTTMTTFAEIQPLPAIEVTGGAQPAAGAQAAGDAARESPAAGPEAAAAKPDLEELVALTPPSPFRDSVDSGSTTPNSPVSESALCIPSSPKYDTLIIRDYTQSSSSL

CYP2C19, sequence (P33261 whole entry): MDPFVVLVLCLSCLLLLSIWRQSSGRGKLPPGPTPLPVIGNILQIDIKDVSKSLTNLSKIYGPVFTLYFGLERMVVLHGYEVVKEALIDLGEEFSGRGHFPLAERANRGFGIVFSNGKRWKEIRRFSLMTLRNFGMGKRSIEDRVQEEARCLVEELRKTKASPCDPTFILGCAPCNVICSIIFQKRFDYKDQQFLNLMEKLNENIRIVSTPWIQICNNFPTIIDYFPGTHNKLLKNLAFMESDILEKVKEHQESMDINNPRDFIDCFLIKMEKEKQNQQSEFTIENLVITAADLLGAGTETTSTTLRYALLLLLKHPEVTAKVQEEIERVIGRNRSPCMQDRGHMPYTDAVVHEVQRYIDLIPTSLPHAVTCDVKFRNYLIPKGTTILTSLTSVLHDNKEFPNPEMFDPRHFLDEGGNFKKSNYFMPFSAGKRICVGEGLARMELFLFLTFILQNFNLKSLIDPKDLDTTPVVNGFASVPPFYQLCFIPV

O=C1N[C@H](c2cncc(C#Cc3ccccc3)c2)[C@@H](c2ccccc2Cl)O1 [Compound 1, (4R,5R)-5-(2-chlorophenyl)-4-(5-(phenylethynyl)pyridin-3-yl)oxazolidin-2-one]
metabolism by CYP2C19 (CYP2C19): No evidence
solubility ([1]; EtOAc/heptane 20:80 (% v/v), 20° C.): 2 mg/mL (≈ 5.34 mM)
solubility ([1]; EtOAc/heptane 20:80 (% v/v), 45° C.): 3 mg/mL (≈ 8 mM)
solubility ([1]; EtOAc/heptane 32:68 (% v/v), 20° C.): 6 mg/mL (≈ 16 mM)
solubility ([1]; EtOAc/heptane 32:68 (% v/v), 45° C.): 10 mg/mL (≈ 26.7 mM)
solubility ([1]; EtOAc/heptane 40:60 (% v/v), 20° C.): 11 mg/mL (≈ 29.3 mM)
solubility ([1]; EtOAc/heptane 40:60 (% v/v), 45° C.): 17 mg/mL (≈ 45.4 mM)
solubility ([1]; EtOAc/heptane 50:50 (% v/v), 20° C.): 20 mg/mL (≈ 53.4 mM)
solubility ([1]; EtOAc/heptane 50:50 (% v/v), 45° C.): 34 mg/mL (≈ 90.7 mM)
solubility ([1]; EtOAc/heptane 60:40 (% v/v), 20° C.): 33 mg/mL (≈ 88 mM)
solubility ([1]; EtOAc/heptane 60:40 (% v/v), 45° C.): 61 mg/mL (≈ 163 mM)
solubility ([1]; EtOAc/heptane 70:30 (% v/v), 20° C.): 49 mg/mL (≈ 131 mM)
solubility ([1]; EtOAc/heptane 70:30 (% v/v), 45° C.): 85 mg/mL (≈ 227 mM)
solubility ([1]; EtOAc/heptane 80:20 (% v/v), 20° C.): 69 mg/mL (≈ 184 mM)
solubility ([1]; EtOAc/heptane 80:20 (% v/v), 45° C.): 124 mg/mL (≈ 331 mM)
solubility ([1]; EtOAc/heptane 90:10 (% v/v), 20° C.): 95 mg/mL (≈ 253 mM)
solubility ([1]; EtOAc/heptane 90:10 (% v/v), 45° C.): 177 mg/mL (≈ 472 mM)
solubility ([1]; EtOAc/heptane 100:0 (% v/v), 20° C.): 115 mg/mL (≈ 307 mM)
solubility ([1]; EtOAc/heptane 100:0 (% v/v), 45° C.): 187 mg/mL (≈ 499 mM)
Alzheimer-gene-dependent C1q localization to synapses and synaptic engulfment (C1q): prevented
production of the microglial mediator C1q (C1q): not altered
human equivalent dose (HED) of the rat NOAEL (in vivo): 140 mg
NOAEL at 28 days (in vivo; rat): 15 mg/kg
prevention of PAM-induced seizures, shown previously (C57/BI6J mice): prevents seizures
AhR activation, % of the positive control [2]: 1.11%
mean maximum fold activation of AhR [2]: 1.78 fold
mean activation of PXR [3]: 4.70 fold
clinically significant changes in consciousness (GCS), cognitive or psychiatric side effects (MOCA, GDS, NPIQ) [4]: no evidence
intensity of TEAEs [4]: mild or moderate
deaths, SAEs, severe TEAEs ([4]; 36 participants): no deaths, SAEs, or severe TEAEs
number of TEAEs considered possibly related to treatment ([4]; 36 participants): 8
tolerability ([4]; fasted, healthy participants 50 to 80 years): well tolerated
pKi (mGluR5): 9.22
